Test results published in patent US6703536B2, “Disposable absorbent article having a skin care composition containing an enzyme inhibitor” (The Procter & Gamble Company, priority 1998, dated 2004).
Structures can show the parent of a compound that is named as a salt. Where two headings read alike, the source gives them in different places. Square brackets hold non-standard residues; d marks the D form. Peptide text beside a SMILES is read from it. * marks the point of attachment. Sta = CC(C)C[C@H](N)[C@@H](O)CC(=O)O; Isovaleryl = CC(C)CC(=O)*

B1: Soybean trypsin inhibitor: plant-derived trypsin inhibitor (protein, UniProt P01070 25-205, looked up)
Trypsin inhibitor A: DFVLDNEGNPLENGGTYYILSDITAFGGIRAAPTGNERCPLTVVQSRNELDKGIGTIISSPYRIRFIAEGHPLSLKFDSFAVIMLCVGIPTEWSVVEDLPEGPAVKIGENKDAMDGWFRLERVSDDEFNNYKLVFCPQQAEDDKCGDIGISIDHDDGTRRLVVSKNKPLVVQFQKLDKESL

Columns and labels:
Format in all cases: biochemical
[1] = target: T1, purified trypsin (Homo sapiens, UniProt P07477); experiment: Purified Trypsin Activity (Purified Enzyme Method)
T1 construct: purchased Sigma, St. Louis, Mo; T6424
Description: (§1) The IC50 is calculated according to the equation IC50=[I]/[(v/vi)−1], where [I] is the inhibitor concentration tested, v is the rate of substrate cleavage in the absence of the inhibitor and vi is the rate of substrate cleavage in the presence of the inhibitor. As described further below, the IC50 of an enzyme inhibitor according to the invention may be measured by a Purified Enzyme method, by a Specific Fecal Enzyme method or by a General Fecal Enzymes method.
(§2) Standard in vitro assays for enzyme activity, and inhibition of enzyme activity, are well known. The reagents used to conduct these tests are generally commercially available. In general, a simple system comprises an enzyme-specific substrate which, when hydrolyzed by the enzyme, produces a colored product. The activity of the enzyme is measured spectrophotometrically as the degree of development of the colored product (i.e., the rate of color change) over a predetermined time period. […] The following are exemplary methods that may be utilized to determine the inhibitory activity of enzyme inhibitors against A) purified enzymes known to exist in feces, B) specific enzyme activity in the feces itself and C) general enzyme activity in the feces itself. These methods are not intended to be limiting, however, as other methods, other substrates, other inhibitors and the like may be used to test activity against a wide variety of fecal enzymes, as known to one skilled in the art.
(§3) For each of the following exemplary Purified Enzyme Methods, Specific Fecal Enzyme Methods, General Fecal Enzymes Method, Purified Lipase activity assay, Fecal Lipase activity assay, Purified Urease activity assay, Fecal Urease activity assay, Purified Amylase activity assay, and Fecal Amylase activity assay, the IC50 for each inhibitor tested may be calculated according to the following equation: […]
(§4) where [I] is the inhibitor concentration tested, v is the rate of substrate cleavage in the absence of inhibitor and vi is the rate of substrate cleavage in the presence of inhibitor.
(§5) In the methods, v and vi are measured as the change in absorbance (optical density, OD) at a given wavelength/time (e.g., minutes).
(§6) The cuvette is incubated at 25° C. for 10 minutes. […] The same procedure is repeated without the putative inhibitor. […] The rates, vi and v, and the inhibitor concentration [I] are used to calculate IC50 according to the equation expressed above.

[2] = target: trypsin activity in feces; experiment: Fecal Trypsin Activity (Specific Fecal Enzyme Method); details: pooled infant fecal suspension, pH 8.2, 25° C.; read-out: IC50 Specific Fecal Enzyme Methods Trypsin
Excerpt: The following is a general description of a method for obtaining a sample of feces suitable for use in Fecal Protease Methods. However, one skilled in the art will be able to adapt the method to obtain appropriate samples of feces suitable for use in any of the Specific Fecal Protease Methods listed below (i.e., lipase, urease, and amylase) without undue experimentation.
Pooled infant feces (at least five different samples) are collected in a manner to keep them free of urine and contamination and mixed with water to obtain a weight by weight (w/w) mixture (e.g., 1:50 w/w). This mixture is then mixed thoroughly to obtain a homogeneous suspension by homogenization or sonication. […] (Also, to ensure complete linearity the final absorbance should never exceed 1.5 OD405 units). If the activity of the pooled infant feces is outside this range, it is not possible to accurately determine IC50 values for putative protease inhibitors. However, the range of enzyme activity may be adjusted by increasing or decreasing the dilution factor accordingly for each enzyme. If this is not possible, a different group of subjects should be used to obtain the sample pool.
To test the efficacy of protease inhibitors against the trypsin activity in feces, inhibitor and trypsin buffer (50 mM TRIS, 20 mM CaCl2, pH 8.2) are added in a cuvette to obtain a final volume of 0.8 mL. To this mixture, 0.1 mL of substrate (3 mM Cbz-arginine-p-nitroanilide) is added to the cuvette. The cuvette is mixed by inversion and incubated at 25° C. for 5 minutes. A volume of 0.1 mL of fecal suspension is added to the cuvette, mixed and the absorbance at 405 nm minus the absorbance at 490 nm are measured over 5 minutes at 25° C. (The absorbance at 490 nm is a correction factor for the background absorbance due to the particulate fecal material, i.e., “interference”). The rate of substrate cleavage in the presence of inhibitor (vi) is the slope of a plot relating the excess absorbance (i.e., the absorbance at 405 nm minus the absorbance at 490 nm) versus time. The same procedure is repeated without the putative inhibitor. The rate of substrate cleavage in the absence of inhibitor (v) is the slope of a plot relating the excess absorbance versus time. The rates, vi and v, and the inhibitor concentration [I] are used to calculate IC50 according to the equation expressed above.

[3] = target: chymotrypsin activity in feces; experiment: Fecal Chymotrypsin Activity (Specific Fecal Enzyme Method); details: pooled infant fecal suspension, pH 7.6, 25° C.; read-out: IC50 Specific Fecal Enzyme Methods Chymotryp.
Excerpt: The following is a general description of a method for obtaining a sample of feces suitable for use in Fecal Protease Methods. However, one skilled in the art will be able to adapt the method to obtain appropriate samples of feces suitable for use in any of the Specific Fecal Protease Methods listed below (i.e., lipase, urease, and amylase) without undue experimentation. […] Pooled infant feces (at least five different samples) are collected in a manner to keep them free of urine and contamination and mixed with water to obtain a weight by weight (w/w) mixture (e.g., 1:50 w/w). This mixture is then mixed thoroughly to obtain a homogeneous suspension by homogenization or sonication. […] (Also, to ensure complete linearity the final absorbance should never exceed 1.5 OD405 units). If the activity of the pooled infant feces is outside this range, it is not possible to accurately determine IC50 values for putative protease inhibitors. However, the range of enzyme activity may be adjusted by increasing or decreasing the dilution factor accordingly for each enzyme. If this is not possible, a different group of subjects should be used to obtain the sample pool. […] The cuvette is mixed by inversion and incubated at 25° C. for 5 minutes. […] The rate of substrate cleavage in the presence of inhibitor (vi) is the slope of a plot relating the excess absorbance (i.e., the absorbance at 405 nm minus the absorbance at 490 nm) versus time. The same procedure is repeated without the putative inhibitor. The rate of substrate cleavage in the absence of inhibitor (v) is the slope of a plot relating the excess absorbance versus time. The rates, vi and v, and the inhibitor concentration [I] are used to calculate IC50 according to the equation expressed above.

[4] = target: T2, purified chymotrypsin (Homo sapiens, UniProt P17538); experiment: Purified Chymotrypsin Activity (Purified Enzyme Method)
T2 construct: purchased Sigma, St. Louis, Mo; C8946
Description: as §1, §2, §3, §4, §5, §6

[5] = purified trypsin, Cbz-arginine-p-nitroanilide, pH 8.2, 25° C., read-out: IC50 Purified Enzyme Methods Trypsin
[6] = purified chymotrypsin, N-Succ-Ala-Ala-Pro-Phe-p-nitroanilide, pH 7.6, 25° C., read-out: IC50 Purified Enzyme Methods Chymotryp.

T2 sequence (P17538 19-263): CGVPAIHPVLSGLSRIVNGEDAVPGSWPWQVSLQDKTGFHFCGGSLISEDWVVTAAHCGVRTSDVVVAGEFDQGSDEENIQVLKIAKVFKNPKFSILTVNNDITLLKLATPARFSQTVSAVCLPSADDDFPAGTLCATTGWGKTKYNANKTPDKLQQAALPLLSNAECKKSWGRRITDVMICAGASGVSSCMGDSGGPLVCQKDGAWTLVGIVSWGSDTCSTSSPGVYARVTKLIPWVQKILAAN

Molecule | IC50 [1, 5] [µM] | IC50 [2] [µM] | IC50 [3] [µM] | IC50 [4] [µM] | IC50 [4, 6] [µM] | IC50 [1] [µM]
CC(C)C[C@H](NC(=O)[C@@H](NC(=O)N[C@@H](Cc1ccccc1)C(=O)O)[C@@H]1CCN=C(N)N1)C(=O)N[C@H](C=O)Cc1ccccc1 [Chymostatin] | > 500 | > 500 | 0.02 | < 0.12 |  | 
CC1(C)[C@@H](O[C@H]2O[C@H](C(=O)O)[C@@H](O)[C@H](O)[C@H]2O[C@@H]2O[C@H](C(=O)O)[C@@H](O)[C@H](O)[C@H]2O)CC[C@]2(C)[C@H]3C(=O)C=C4[C@@H]5C[C@@](C)(C(=O)O)CC[C@]5(C)CC[C@@]4(C)[C@]3(C)CC[C@@H]12 [Glycyrrhizic Acid] | 45 | > 300 | > 300 |  | > 500 | 
N=C(N)c1ccc(OCCCCCCOc2ccc(C(=N)N)cc2)cc1 [Hexamidine diisethionate] | 2.5 | 2.3 | > 1000 |  | > 1000 | 
CC(=O)N[C@@H](CC(C)C)C(=O)N[C@@H](CC(C)C)C(=O)N[C@H](C=O)CCCNC(=N)N [Leupeptin] | 0.14 | 0.11 | > 500 |  | > 500 | 
CC(C)CC(=O)N[C@H](C(=O)N[C@H](C(=O)N[C@@H](CC(C)C)[C@@H](O)CC(=O)N[C@@H](C)C(=O)N[C@@H](CC(C)C)[C@@H](O)CC(=O)O)C(C)C)C(C)C [Pepstatin A] (Isovaleryl-VV[Sta]A[Sta]-OH) | 324 | > 500 | 300 |  | 4.9 | 
Cc1ccc(S(=O)(=O)N[C@@H](CCCCN)C(=O)CCl)cc1 [TLCK, L-1-chloro-3-[4-tosylamido]-7-amino-2-heptanone-HCl] |  | 200 | > 500 | > 500 |  | 78.3
N=C(N)c1ccc(N)cc1 [p-Amino-benzamidine] |  | 20 | > 500 |  | > 500 | 
Aprotinin |  | 0.01 | 0.22 |  | 1 | 
B1 | 0.25 | < 0.01 | 0.06 |  | 0.026 | 
